In patent US10329310B2, “Arginase inhibitors and their therapeutic applications” (ONCOARENDI THERAPEUTICS S.A., priority 2014, dated 2019):
Counter-ions that a name gives are not always drawn.

Target: recombinant human arginases 1 and 2
Experiment: Human Arginase Activity Assay (urea measurement, colorimetric)
Assay type: biochemical
Details: 37° C., 60 min, isoform not given, read-out: Activity Class (IC50)
Protocol: Human Arginase Activity Assay
The assay was run in the 96-well plate format, each reaction in the total volume of 100 ul. The assay is based on urea measurement, which is a product of L-arginine enzymatic degradation. (Baggio et al. J. Pharmacol. Exp. Ther. 1999, 290, 1409-1416). The color product is developed by adding a mixture of reagent A (10 mM o-phthaldialdehyde and 0.4% polyoxyethylene (23) lauryl ether (w/v) in 1.8 M sulfuric acid) and reagent B (1.3 mM primaquine diphosphate, 0.4% polyoxyethylene (23) lauryl ether (w/v), and 130 mM boric acid in 3.6 M sulfuric acid) in equal proportions. The absorbance for each well was measured at 530 nm and was referred to the concentration curve determined using urea as a standard.
Briefly, to each well of a 96-well microtiter plate 40 μL of enzyme, 50 μL of the test compound solution, and 10 μL of enzyme substrate solution (L-arginine+manganese chloride) was added. For positive control, only the enzyme and substrate was added, the negative controls contained only manganese chloride. After incubating the microtiter plate at 37° C. for 60 min, 150 μL of a urea reagent was added to each well to stop the reaction. After quenching the reaction mixture, the plate was left for 20 min at room temperature in order to allow color development. Absorbance was measured with Envision® Reader (Perkin-Elmer) (λ=530 nm).
The IC50 values were calculated using GraphPad Prism and divided into the following classes: […]

SMILES | IC50 [µM]
CNC(CCCCB(O)O)(CNC(=N)N)C(=O)O (stereo not drawn) [Example 9, 6-Borono-2-(guanidinomethyl)-2-(methylamino)hexanoic acid dihydrochloride] | 0.001 to 0.1
NC(CCCCB(O)O)(C(=O)O)C1CCN(S(=O)(=O)NCc2ccc(C(F)(F)F)cc2)CC1 (stereo not drawn) [Example 16, 2-Amino-6-borono-2-(1-(N-(4-(trifluoromethyl)benzyl)sulfamoyl)piperidin-4-yl)hexanoic acid hydrochloride] | 1 to 10
CN(C)S(=O)(=O)N1CCC(C(N)(CCCCB(O)O)C(=O)O)CC1 (stereo not drawn) [Example 15, 2-Amino-6-borono-2-(1-(N,N-dimethylsulfamoyl)piperidin-4-yl)hexanoic acid hydrochloride] | 10 to 100
NC(CCCCB(O)O)(C(=O)O)C1CCN(S(N)(=O)=O)CC1 (stereo not drawn) [Example 14, 2-Amino-6-borono-2-(1-sulfamoylpiperidin-4-yl)hexanoic acid hydrochloride] | 1 to 10
CNC(CCCCB(O)O)(CNS(N)(=O)=O)C(=O)O (stereo not drawn) [Example 8, 6-Borono-2-(methylamino)-2-((sulfamoylamino)methyl)hexanoic acid hydrochloride] | 0.1 to 1
NC(CCCCB(O)O)(CNS(=O)(=O)NCc1ccccc1)C(=O)O (stereo not drawn) [Example 5, hydrochloride] | 1 to 10
NC(=O)NCC(N)(CCCCB(O)O)C(=O)O (stereo not drawn) [Example 3, 2-Amino-6-borono-2-(ureidomethyl)hexanoic acid hydrochloride] | 10 to 100
CNC(=N)NCC(N)(CCCCB(O)O)C(=O)O (stereo not drawn) [Example 7, 2-Amino-6-borono-2-((3-methylguanidino)methyl)hexanoic acid hydrochloride] | 0.1 to 1

More lines, now with the values ahead:

IC50 [µM] | SMILES
0.1 to 1 | CNS(=O)(=O)NCC(N)(CCCCB(O)O)C(=O)O (stereo not drawn) [Example 6, hydrochloride]
1 to 10 | NC(CCCCB(O)O)(CCNS(N)(=O)=O)C(=O)O (stereo not drawn) [Example 12, hydrochloride]
0.1 to 1 | CN(C)S(=O)(=O)NCC(N)(CCCCB(O)O)C(=O)O (stereo not drawn) [Example 4, 2-Amino-6-borono-2-(((N,N-dimethylsulfamoyl)amino)methyl)hexanoic acid hydrochloride]
1 to 10 | NC(CCCCB(O)O)(CCS(N)(=O)=O)C(=O)O (stereo not drawn) [Example 10, 2-Amino-6-borono-2-(2-sulfamoylethyl)hexanoic acid hydrochloride]
